Data published in ChEMBL document CHEMBL1149539, “Design, synthesis, and biological activity of folate receptor-targeted prodrugs of thiolate histone deacetylase inhibitors” (Bioorg Med Chem Lett, 2007).
Active and inactive are the calls of the source. The rule behind the calls is not given here.

Columns and labels:
Histone deacetylase [1] = experiment: Inhibition of HDAC in HeLa cells in presence of DTT after 30 mins by fluorescent activity assay; assay type: cell-based, Homo sapiens
Histone deacetylase [2] = experiment: Inhibition of HDAC in HeLa cells after 30 mins by fluorescent activity assay; assay type: cell-based, Homo sapiens
MCF7 [3] = experiment: Growth inhibition of human MCF7 cells after 72 hrs by Alamar Blue assay; assay type: functional, cell-based
MCF7 [4] = experiment: Increase in accumulation of acetylated histone H4 in human MCF7 cells after 14 hrs by Western blot analysis; assay type: functional, cell-based
MCF7 [5] = experiment: Increase in accumulation of acetylated histone H4 in human MCF7 cells in presence of 100 uM folic acid after 14 hrs by Western blot analysis; assay type: functional, cell-based

| IC50 (Histone deacetylase [1]) [µM] | IC50 (Histone deacetylase [2]) [µM] | SMILES | Activity (MCF7 [3]) | Activity (MCF7 [4]) | Activity (MCF7 [5]) |
| --- | --- | --- | --- | --- | --- |
| 3 | – | NC1=NC(=O)C2N=C(CNc3ccc(C(=O)N[C@@H](CCC(=O)NCCOCCOCCSSCCCCCCC(=O)Nc4ncc(-c5ccccc5)s4)C(=O)O)cc3)C=NC2=N1 (some centres not stated) | – | – | – |
| 9 | – | NC1=NC(=O)C2N=C(CNc3ccc(C(=O)N[C@@H](CCC(=O)NCCCCCCSSCCCCCCNC(=O)CC[C@H](NC(=O)c4ccc(NCC5=NC6C(=O)N=C(N)N=C6N=C5)cc4)C(=O)O)C(=O)O)cc3)C=NC2=N1 (some centres not stated) | – | – | – |
| – | 21 | NC1=NC(=O)C2N=C(CNc3ccc(C(=O)N[C@@H](CCC(=O)NCCCCCCS)C(=O)O)cc3)C=NC2=N1 (some centres not stated) | – | – | – |
| 0.27 | – | NC1=NC(=O)C2N=C(CNc3ccc(C(=O)N[C@@H](CCC(=O)NCCSSCCCCCCC(=O)Nc4ncc(-c5ccccc5)s4)C(=O)O)cc3)C=NC2=N1 (some centres not stated) | Dose-dependent effect | Active | inactive |
